Converted amounts (≈) assume the structure as drawn.
Tests used:
[1] = tested on: L1210; assay: Tested for in vitro cytotoxicity against L1210 murine leukemia cells in mice; format: functional, cell-based; conditions: Mus musculus
[2] = tested on: Mus musculus; assay: Assayed for antitumor activity against P388 leukemia in mice at a dose of 250 mg/kg/injection; Toxic, T/C<85%; format: toxicity, organism-based; conditions: in vivo
[3] = tested on: Mus musculus; assay: Assayed for antitumor activity against P388 leukemia in mice at a dose of 25 mg/kg/injection; format: functional
[4] = tested on: Mus musculus; assay: Assayed for antitumor activity against P388 leukemia in mice at a dose of 50 mg/kg/injection; format: functional
[5] = tested on: Mus musculus; assay: Assayed for antitumor activity against P388 leukemia in mice at a dose of 5 mg/kg/injection; format: functional
[6] = tested on: Mus musculus; assay: Assayed for antitumor activity against P388 leukemia in mice at a dose of 100 mg/kg/injection; format: functional
[7] = tested on: Mus musculus; assay: Assayed for antitumor activity against P388 leukemia in mice at a dose of 10 mg/kg/injection; format: functional
[8] = tested on: Mus musculus; assay: Assayed for antitumor activity against P388 leukemia in mice at a dose of 250 mg/kg/injection; format: functional
[9] = tested on: Mus musculus; assay: Assayed for antitumor activity against P388 leukemia in mice at a dose of 100 mg/kg/injection; Toxic, T/C<85%; format: toxicity, organism-based; conditions: in vivo
[10] = tested on: Mus musculus; assay: Assayed for antitumor activity against P388 leukemia in mice at a dose of 2.5 mg/kg/injection; format: functional
[11] = tested on: Mus musculus; assay: Tested for antitumor activity against B16 melanoma in mice, at a dose of 100 mg/kg given intraperitoneally; format: functional; conditions: route intraperitoneal
[12] = tested on: Mus musculus; assay: Tested for antitumor activity against B16 melanoma in mice, at a dose of 50 mg/kg given intraperitoneally; format: functional; conditions: route intraperitoneal
[13] = tested on: Mus musculus; assay: Tested for antitumor activity against vincristine-resistant P388 leukemia (P388/VCR) in mice, at a dose of 10 mg/kg given intraperitoneally; format: functional; conditions: route intraperitoneal
[14] = tested on: Mus musculus; assay: Tested for antitumor activity against vincristine-resistant P388 leukemia (P388/VCR) in mice, at a dose of 2.5 mg/kg given intraperitoneally; format: functional; conditions: route intraperitoneal
[15] = tested on: Mus musculus; assay: Tested for antitumor activity against vincristine-resistant P388 leukemia (P388/VCR) in mice, at a dose of 25 mg/kg given intraperitoneally; format: functional; conditions: route intraperitoneal
[16] = tested on: Mus musculus; assay: Tested for antitumor activity against vincristine-resistant P388 leukemia (P388/VCR) in mice, at a dose of 5 mg/kg given intraperitoneally; format: functional; conditions: route intraperitoneal
[17] = Evaluated for the inhibition of microtubule assembly prepared from bovine brain; format: functional, Bos taurus
[18] = tested on: Mus musculus; assay: Assayed for antitumor activity against P388 leukemia in mice at a dose of 50 mg/kg/injection; Toxic, T/C<85%; format: toxicity, organism-based; conditions: in vivo
[19] = tested on: Mus musculus; assay: Tested for antitumor activity against B16 melanoma in mice at a dose of 25 mg/kg given intraperitoneally; format: functional; conditions: route intraperitoneal
[20] = tested on: Mus musculus; assay: Tested for antitumor activity against vincristine-resistant P388 leukemia (P388/VCR) in mice at a dose 1 mg/kg, given intraperitoneally; format: functional; conditions: route intraperitoneal
[21] = tested on: Mus musculus; assay: Tested for antitumor activity against vincristine-resistant P388 leukemia (P388/VCR) in mice at a dose 2.5 mg/kg, given intraperitoneally; format: functional; conditions: route intraperitoneal
[22] = tested on: Mus musculus; assay: Tested for antitumor activity against vincristine-resistant P388 leukemia (P388/VCR) in mice at a dose 5 mg/kg, given intraperitoneally; Toxic, T/C<85%; format: toxicity, organism-based; set-up: dose 5 mg/kg, route intraperitoneal; conditions: in vivo, ip
[23] = tested on: Mus musculus; assay: Tested for antitumor activity against B16 melanoma in mice, at a dose of 25 mg/kg given intraperitoneally; format: functional; conditions: route intraperitoneal
[24] = tested on: Mus musculus; assay: Tested for antitumor activity against vincristine-resistant P388 leukemia (P388/VCR) in mice, at a dose of 10 mg/kg given intraperitoneally; Toxic, T/C<85%; format: toxicity, organism-based; set-up: dose 10 mg/kg, route intraperitoneal; conditions: in vivo, ip

Structure (SMILES) | IC50 [1] [µg/mL] | T/C [3] [%] | T/C [4] [%] | T/C [5] [%] | T/C [6] [%] | T/C [7] [%] | T/C [8] [%] | further results
COc1cc(OC)cc([C@@H]2c3cc4c(cc3N[C@@H]3COC(=O)N23)OCCO4)c1 | 0.08 (≈ 0.208 µM) | 150 | 172 | 117 | 94 | 133 |  | T/C [2]: < 85%
COc1cc([C@@H]2c3cc4c(cc3N(N)[C@@H]3COC(=O)N23)OCO4)cc(OC)c1OC | 0.75 (≈ 1.81 µM) | 122 | 147 |  | 147 | 111 | 161 | 
COc1cc([C@@H]2c3cc4c(cc3N(N)[C@H]3COC(=O)N23)OCO4)cc(OC)c1OC | 0.09 (≈ 0.217 µM) | 114 | 134 | 104 | 153 | 109 |  | T/C [2]: < 85%
COc1cc(OC)cc([C@@H]2c3cc4c(cc3N[C@H]3COC(=O)N23)OCO4)c1 | 0.16 (≈ 0.432 µM) | 139 | 156 |  | 206 | 110 | 206 | 
COc1cc([C@@H]2c3cc4c(cc3N[C@H]3COC(=O)N23)OCCO4)cc(OC)c1OC | 0.055 (≈ 0.133 µM) | 156 | 177 | 139 |  | 144 |  | T/C [9]: < 85%
COc1cc(OC)cc([C@@H]2c3cc4c(cc3N[C@@H]3COC(=O)N23)OCO4)c1 | 0.22 (≈ 0.594 µM) | 137 | 159 |  | 214 | 123 |  | 
COc1cc([C@@H]2c3cc4c(cc3N[C@H]3COC(=O)N23)OCO4)cc(OC)c1OC | 0.05 (≈ 0.125 µM) | 150 | 161 | 124 | 172 | 128 | >326 | T/C [10]: 111%; T/C [11]: 197%; T/C [12]: 153%; T/C [13]: 152%; T/C [14]: 113%; T/C [15]: 152%; T/C [16]: 129%; IC50 [17]: 0.42 µg/mL (≈ 1.05 µM)
COc1cc([C@@H]2c3cc4c(cc3[C@H](O)[C@H]3COC(=O)[C@H]23)OCO4)cc(OC)c1OC [PODOFILOX] | 0.0036 (≈ 0.00869 µM) | 111 |  |  |  | 109 |  | T/C [18]: < 85%; T/C [10]: 111%; T/C [19]: 110%; T/C [20]: 122%; T/C [21]: 125%; T/C [22]: < 85%; IC50 [17]: 0.13 µg/mL (≈ 0.314 µM)
COc1cc(OC)cc([C@@H]2c3cc4c(cc3N[C@H]3COC(=O)N23)OCCO4)c1 | 0.028 (≈ 0.0728 µM) | 147 | 199 | 114 |  | 131 |  | T/C [9]: < 85%
COc1cc([C@@H]2c3cc4c(cc3N[C@@H]3COC(=O)N23)OCCO4)cc(OC)c1OC | 0.052 (≈ 0.125 µM) | 153 | 165 | 119 | 233 | 131 |  | T/C [2]: < 85%
COc1cc([C@@H]2c3cc4c(cc3N[C@@H]3COC(=O)N23)OCO4)cc(OC)c1OC | 0.42 (≈ 1.05 µM) | 161 | 239 | 117 |  | 144 |  | T/C [23]: 163%; T/C [12]: 190%; T/C [24]: < 85%; T/C [16]: 137%; IC50 [17]: 1.7 µg/mL (≈ 4.25 µM)
COc1cc(C2c3cc4c(cc3N=C3COC(=O)N32)OCO4)cc(OC)c1OC (configuration not stated) | 0.54 (≈ 1.36 µM) | 109 | 111 | 104 | 109 | 109 | 144 | 
